Assay results: US20130309306A1, “INTRAPULMONARY BENZODIAZEPINE FOR THE TREATMENT AND PREVENTION OF SEIZURES” (priority 2010, published 2013)

Test system: PTZ-induced seizures
Assay: PTZ seizure threshold test, tonic extension endpoint, Example 2
Assay type: in vivo, mice
Procedure: NIH Swiss mice (22-30 g) were kept in a vivarium under controlled environmental conditions (temperature, 22-26° C.; humidity, 40-50%) with an artificial 12-h light/dark cycle. Wood chips were used in all cages. Experiments were performed during the light phase of the light/dark cycle after a minimum 30-min period of acclimation to the experimental room. The animal facilities were fully accredited by the Association for Assessment and Accreditation of Laboratory Animal Care. All studies were performed under protocols approved by the Animal Care and Use Committee of the University of California, Davis in strict compliance with the Guide for the Care and Use of Laboratory Animals of the National Research Council (National Academy Press, Washington, D.C.; on the internet at nap.edu/readingroom/books/labrats/).
Midazolam was administered as a commercially available injectable solution (midazolam hydrochloride, 10 mg/10 ml; APP Pharmaceuticals, Schaumburg, Ill., USA) containing sodium chloride (0.8% w/v), disodium edetate (0.01% w/v), benzyl alcohol as preservative (1% v/v) with HCl to adjust the pH 3-3.6. Pentylenetetrazol (PTZ) (Sigma-Aldrich, St. Louis, Mo., USA) was dissolved in 0.9% w/v saline. The remaining test substances were all obtained from Tocris Bioscience (Ellisville, Mo., USA) except for clonazepam, which was from Sigma-Aldrich. Finasteride was dissolved in 25% hydroxypropyl-β-cyclodextrin (Trappsol; Cyclodextrin Technologies Development, High Springs, Fla., U.S.A.). Metyrapone was dissolved in double distilled water and PK 11195 and clonazepam were suspended in 1% Tween 80 and adjusted to volume with saline.
PTZ seizure threshold was determined according to a protocol used previously in our laboratory (Dhir et al., 2011). Intravenous PTZ elicits a sequence of seizure signs beginning with twitch and progressing to clonus and tonic limb extension. In the present study, tonic extension was used as the endpoint. […] It is noteworthy that this is the endpoint originally used in studies characterizing the actions of midazolam against PTZ seizures in mice (Pieri, 1983 Br J Clin Pharmacol 16 Suppl 1: 17S-27S). A 27 gauge-¾ inch “butterfly” needle was inserted into the lateral tail vein and the needle was secured with a narrow piece of adhesive tape. The animal was placed inside a 2 L glass beaker with free aeration from the top and allowed to move freely. The needle was connected by polyethylene tubing to a Beckton, Dickinson 1 ml syringe mounted on an infusion pump (Model ‘11’ plus syringe pump; Harvard Apparatus, Holliston, Mass.). PTZ solution (10 mg/ml) was infused at a constant rate of 0.5 ml/min. The infusion was stopped at 3 min or at the onset of tonic extension, whichever occurred first. The threshold value (mg/kg) for tonic extension was determined according to the formula: (infusion duration [sec]×infusion rate [ml/min]×PTZ concentration [mg/ml]×1000)/(60 [sec]×weight of mouse [g]).
In an initial experiment, the dose-response relationship for midazolam elevation of seizure threshold was assessed at doses of 100 μg/kg to 5 mg/kg (15 min pretreatment time). […] PK 11195 was used at a dose (15 mg/kg) as in the study of Ugale et al. (2004 Brain Res. 2004 Oct. 8; 1023(1):102-11). Clonazepam was administered at a dose of 100 μg/kg (Akula et al., 2009). The volume of all intraperitoneal injections was 10 ml/kg.
Results are expressed as mean±S.E.M.; the significance of the difference in the responses of treatment groups with respect to control is based on one-way analysis of variance (ANOVA) followed by specific post-hoc comparisons using Tukey's test. Differences are considered statistically significant when the probability of type I error was less than 0.05.

## Cc1ncc2n1-c1ccc(Cl)cc1C(c1ccccc1F)=NC2 [Midazolam, midazolam]
Intraperitoneal 500 to 5000 μg/kg (significant), 15 min before PTZ infusion (FIG. 7)
  PTZ threshold for tonic extension vs vehicle: dose-dependent elevation in threshold
Midazolam 500 μg/kg i.p., 15 min before i.v. PTZ infusion, in the absence of finasteride
  increase in threshold for tonic extension (vs vehicle only control): 2.3 fold
Midazolam 100 or 200 μg/kg intratracheal, 10 min before PTZ, in the absence of flumazenil (FIG. 12)
  PTZ seizure threshold vs vehicle: significant increase in the seizure threshold
